From patent US20250034185A1 (priority 2021, published 2025)
“Also recorded” adds a separate entry of the source.

What was measured:
[1] = system: plasma enzymes; conditions: Sprague Dawley, rat
[2] = Pharmacokinetic study 1: P5P and P5P analog 16, IV and PO, rats; type: in vivo; conditions: rat
Experimental: Pharmacokinetic study 1 was carried out (see Example 98: P5P analog 16i: Pharmacokinetic study 1) to assess if P5P analog 16i was able to be converted to P5P and increase plasma P5P, to assess if P5P analog 16i was orally available, and to compare the ability of PO P5P analog 16i and PO P5P to increase plasma P5P.
In order to isolate the effects of the administered P5P analog 16i on pyridoxine (PL) and P5P (PLP) levels, the basal levels of both PL and P5P were subtracted from the measured concentrations. Baseline subtraction was accomplished by subtracting pre-dose concentrations of either PL or P5P from the subsequent values in the time course.
Formulation—Both P5P (pyridoxal-5-phosphate) and P5P analog 16 were formulated in phosphate buffered saline (PBS) as homogenous solutions on the day of dosing.
Animals and group—13 CD ♂ rats with an approx. weigh of ˜250 g were used. Animals were split into 4 groups+1 extra (n=3 for each group). Animals were allowed a 5-day acclimatization period in animal facility. The animal room environment was controlled (temperature 22 f 0.2° C.; relative humidity 55 f 25%; 12 hours light/dark cycle, and 12 air changes per hour). A standard certified commercial rodent chow was provided to the animals ad libitum. Procedures involving the care and use of animals in this study were reviewed and approved by the Institutional Animal Care and Use Committee (IACUC) prior to conduct. One day prior to dosing on D-1, Rats were divided in 4 groups (Table 7). Rats in Group 3 and 4 were fasted overnight (12-14 hours) with access to water.
On day 0, animals were identified, weighted, and dosed by intravenous (IV) injection or oral gavage (PO) as described in Table 7. Food tray were returned to Group 3 and 4, 2 hrs post dosing.
Blood was collected at indicated time points below for all groups: Pre-dose, 5′, 15′, 30′, 1 h, 2 h, 4 h, 6 h, 8 h, 24 h.
About 150 μL of blood was collected at indicated time points below using K2EDTA tubes. Blood was kept on ice until centrifugation at 4° C. at 6000 RCF for 10 min. Plasma was collected and kept on dry ice until transferred at −80° C.

Cc1ncc(COP(=O)(N[C@@H](C)C(=O)Oc2ccc3c(c2)CCCC3)Oc2ccccc2)c(C=O)c1O (stereo partly drawn) [Compound 16xxxiv, (2S)-5,6,7,8-Tetrahydronaphthalen-2-yl 2-(((4-formyl-5-hydroxy-6-methylpyridin-3-yl)methoxy)(phenoxy)phosphorylamino)propanoate]
P5P formed [1]: 4.9 µM | relative P5P formed [1]: 144.1%

Cc1ncc(COP(=O)(N[C@@H](C)C(=O)OC(C)C)Oc2ccc(Br)cc2F)c(C=O)c1O (stereo partly drawn) [Compound 16xxxix, (2S)-Isopropyl 2-((4-bromo-2-fluorophenoxy)((4-formyl-5-hydroxy-6-methylpyridin-3-yl)methoxy)phosphorylamino)propanoate]
P5P formed [1]: 2.3 µM | relative P5P formed [1]: 92.0%

Cc1ncc(CO[P@@](=O)(N[C@@H](C)C(=O)OC(C)C)Oc2ccccc2)c(/C=N/C2CCCC2)c1O [Compound 16xxxvi, (S)-Isopropyl 2-((S)-((4-((E)-(cyclopentylimino)methyl)-5-hydroxy-6-methylpyridin-3-yl)methoxy)(phenoxy)phosphorylamino)propanoate]
P5P formed [1]: 3.8 µM | relative P5P formed [1]: 152.0%

Cc1ccc(OP(=O)(N[C@@H](C)C(=O)OC(C)C)OCc2cnc(C)c(O)c2C=O)cc1 (stereo partly drawn) [Compound 16xxxvii, (2S)-Isopropyl 2-(((4-formyl-5-hydroxy-6-methylpyridin-3-yl)methoxy)(p-tolyloxy)phosphorylamino)propanoate]
P5P formed [1]: 0.3 µM | relative P5P formed [1]: 12.0%

Cc1ncc(COP(=O)(N[C@@H](C)C(=O)OCc2ccccc2)Oc2ccccc2)c(/C=N/CCc2ccc(C#N)cc2)c1O (stereo partly drawn) [Compound 16xxxviii, (2S)-Benzyl 2-(((4-((E)-(4-cyanophenethylimino)methyl)-5-hydroxy-6-methylpyridin-3-yl)methoxy)(phenoxy)phosphorylamino)propanoate]
P5P formed [1]: 0.5 µM | relative P5P formed [1]: 14.7%

Cc1ncc(COP(=O)(O)O)c(C=O)c1O [Compound P5P, pyridoxal-5-phosphate]
overall exposure of P5P ([2]; IV 1 mg/kg): approximately 2200 ng/ml*hr | time after which the dosed compound is no longer left/detectable in the plasma ([2]; IV 1 mg/kg): 4 h | total exposure of pyridoxal (above baseline values) ([2]; IV 1 mg/kg): 770 ng/ml*hr | plasma P5P Cmax ([2]; IV 1 mg/kg, PBS): 3373 ng/mL | oral bioavailability of P5P ([2]; PO 10 mg/kg vs IV 1 mg/kg): 0% | plasma pyridoxal Cmax ([2]; oral gavage 10 mg/kg): 3668 ng/mL | P5P detected in the plasma over the 24-hour assessment period ([2]; oral gavage 10 mg/kg, 10 mg/kg): no detectable P5P; also recorded: not detected
